Like-named read-outs stand apart in the source and are kept apart here.
Molecular target: T1, PD-1/PD-L1 interaction (PD-1-Ig / PD-L1-His) (Homo sapiens, UniProt Q9NZQ7)
T1 construct: hPDL1(18-239)-TVMV-His; TVMV protease site linker (C); made in house; host or cells: HEK293T
Assay: PD-1/PD-L1 Homogenous Time-Resolved Fluorescence (HTRF) binding assay
Conditions: PD-L1-His 10 nM, PD-1-Ig 20 nM, read-out: Range or IC50
Description: The ability of the compounds of formula (I) to bind to PD-L1 was investigated using a PD-1/PD-L1 Homogenous Time-Resolved Fluorescence (HTRF) binding assay.
Homogenous Time-Resolved Fluorescence (HTRF) Binding Assay.
The interaction of PD-1 and PD-L1 can be assessed using soluble, purified preparations of the extracellular domains of the two proteins. The PD-1 and PD-L1 protein extracellular domains were expressed as fusion proteins with detection tags, for PD-1, the tag was the Fc portion of Immunoglobulin (PD-1-Ig) and for PD-L1 it was the 6 histidine motif (PD-L1-His). All binding studies were performed in an HTRF assay buffer consisting of dPBS supplemented with 0.1% […] bovine serum albumin and 0.05% (v/v) Tween-20. For the h/PD-L1-His binding assay, inhibitors were pre-incubated with PD-L1-His (10 nM final) for 15 m in 4 μl of assay buffer, followed by addition of PD-1-Ig (20 nM final) in 1 μl of assay buffer and further incubation for 15 m. HTRF detection was achieved using europium crypate-labeled anti-Ig (1 nM final) and allophycocyanin (APC) labeled anti-His (20 nM final). Antibodies were diluted in HTRF detection buffer and 5 μl was dispensed on top of the binding reaction. […] Additional binding assays were established between the human proteins PD-1-Ig/PD-L2-His (20 & 5 nM, respectively) and CD80-His/PD-L1-Ig (100 & 10 nM, respectively). […]

T1 sequence (Q9NZQ7 with tags, fused parts or gaps): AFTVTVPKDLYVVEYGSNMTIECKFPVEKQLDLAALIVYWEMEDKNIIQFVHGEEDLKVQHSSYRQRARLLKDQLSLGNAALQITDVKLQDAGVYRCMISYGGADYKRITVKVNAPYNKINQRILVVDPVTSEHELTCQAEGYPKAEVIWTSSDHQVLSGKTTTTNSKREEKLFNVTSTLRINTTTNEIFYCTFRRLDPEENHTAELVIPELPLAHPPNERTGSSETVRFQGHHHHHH

| IC50 (IC50 range class) [nM] | IC50 (numeric IC50) [nM] | Structure (SMILES) |
| --- | --- | --- |
| 20.1 to 90 |  | Cc1c(OCCCN2CCCC(CO)C2)cccc1-c1cccc(OCCCN2CC[C@@H](O)C2)c1C (mixture of isomers) [Example 2003, (3R)-1-(3-((3′-(3-(3-(hydroxymethyl)piperidin-1-yl)propoxy)-2,2′-dimethyl-[1,1′-biphenyl]-3-yl)oxy)propyl)pyrrolidin-3-ol] |
| 20.1 to 90 |  | Cc1c(OCCCN(C)CC(O)CO)cccc1-c1cccc(OCCCN2CC[C@@H](O)C2)c1C (mixture of isomers) [Example 2015, 3-((3-((3′-(3-((R)-3-hydroxypyrrolidin-1-yl)propoxy)-2,2′-dimethyl-[1,1′-biphenyl]-3-yl)oxy)propyl)(methyl)amino)propane-1,2-diol] |
| 20.1 to 90 |  | CCN(CC)C(=O)C1CCCN(CCCOc2cccc(-c3cccc(OCCCN4CC[C@@H](O)C4)c3C)c2C)C1 (mixture of isomers) [Example 2023, N,N-diethyl-1-(3-((3′-(3-((R)-3-hydroxypyrrolidin-1-yl)propoxy)-2,2′-dimethyl-[1,1′-biphenyl]-3-yl)oxy)propyl)piperidine-3-carboxamide] |
| 20.1 to 90 |  | Cc1c(OCCCN2CC[C@@H](O)C2)cccc1-c1cccc(OCCCN2CCCCC2CO)c1C (mixture of isomers) [Example 2025, (3R)-1-(3-((3′-(3-(2-(hydroxymethyl)piperidin-1-yl)propoxy)-2,2′-dimethyl-[1,1′-biphenyl]-3-yl)oxy)propyl)pyrrolidin-3-ol] |
| 0.04 to 20 |  | Cc1c(OCCCN2CCCC(CO)C2)cccc1-c1cccc(OCCCN2CCCC(CO)C2)c1C (mixture of isomers) [Example 2026, ((((2,2′-dimethyl-[1,1′-biphenyl]-3,3′-diyl)bis(oxy))bis(propane-3,1-diyl))bis(piperidine-1,3-diyl))dimethanol] |
| 0.04 to 20 |  | Cc1c(OCCCNCC(O)C(C)(C)O)cccc1-c1cccc(OCCCNCC(O)C(C)(C)O)c1C (mixture of isomers) [Example 2029, 4,4′-((((2,2′-dimethyl-[1,1′-biphenyl]-3,3′-diyl)bis(oxy))bis(propane-3,1-diyl))bis(azanediyl))bis(2-methylbutane-2,3-diol)] |
| 20.1 to 90 |  | Cc1c(OCCCNCC(O)c2cccnc2)cccc1-c1cccc(OCCCN2CC[C@@H](O)C2)c1C (mixture of isomers) [Example 2040, (3R)-1-(3-((3′-(3-((2-hydroxy-2-(pyridin-3-yl)ethyl)amino)propoxy)-2,2′-dimethyl-[1,1′-biphenyl]-3-yl)oxy)propyl)pyrrolidin-3-ol] |
| 0.04 to 20 |  | Cc1c(OCCCNCC(O)CO)cccc1-c1cccc(OCCCN2CC[C@@H](O)C2)c1C (mixture of isomers) [Example 2059, 3-((3-((3′-(3-((R)-3-hydroxypyrrolidin-1-yl)propoxy)-2,2′-dimethyl-[1,1′-biphenyl]-3-yl)oxy)propyl)amino)propane-1,2-diol] |
| 0.04 to 20 |  | Cc1c(OCCCN(C)CC(O)CO)cccc1-c1cccc(OCCCN(C)CC(O)CO)c1C (mixture of isomers) [Example 2078, 3,3′-((((2,2′-dimethyl-[1,1′-biphenyl]-3,3′-diyl)bis(oxy))bis(propane-3,1-diyl))bis(methylazanediyl))bis(propane-1,2-diol)] |
| 0.04 to 20 |  | Cc1c(OCCCNCC(O)CO)cccc1-c1cccc(OCCCNCC(O)CO)c1C (mixture of isomers) [Example 2083, 3,3′-((((2,2′-dimethyl-[1,1′-biphenyl]-3,3′-diyl)bis(oxy))bis(propane-3,1-diyl))bis(azanediyl))bis(propane-1,2-diol)] |
| 0.04 to 20 |  | Cc1c(OCCCNCC(C)(O)CO)cccc1-c1cccc(OCCCNCC(C)(O)CO)c1C (mixture of isomers) [Example 2104, 3,3′-((((2,2′-dimethyl-[1,1′-biphenyl]-3,3′-diyl)bis(oxy))bis(propane-3,1-diyl))bis(azanediyl))bis(2-methylpropane-1,2-diol)] |
| 0.04 to 20 |  | Cc1c(OCCCN2CC[C@@H](O)C2)cccc1-c1ccc2c(c1)OC(CCN1CC[C@@H](O)C1)CO2 (single isomer, unassigned) [Example 3030] |
| 0.04 to 20 |  | Cc1c(OCCCN2CC[C@@H](O)C2)cccc1-c1ccc2c(c1)OC(CCN1CC[C@@H](O)C1)CO2 (single isomer, unassigned) [Example 3031] |
| 1000 to 10000 |  | Cc1c(OCCCN2CC[C@@H](O)C2)cccc1-c1cccc(OCCCN2CC(O)C[C@H]2C(=O)O)c1C (stereo in doubt) [Example 2051, (2S,4R)-4-hydroxy-1-(3-((3′-(3-((R)-3-hydroxypyrrolidin-1-yl)propoxy)-2,2′-dimethyl-[1,1′-biphenyl]-3-yl)oxy)propyl)pyrrolidine-2-carboxylic acid] |
| 20.1 to 90 |  | Cc1c(OCCCN2CCC(O)(CC(=O)O)C2)cccc1-c1cccc(OCCCN2CCC(O)(CC(=O)O)C2)c1Cl (stereo not drawn) [Example 1001, 2,2′-((((2-chloro-2′-methyl-[1,1′-biphenyl]-3,3′-diyl)bis(oxy))bis(propane-3,1-diyl))bis(3-hydroxypyrrolidine-1,3-diyl))diacetic acid] |
| 0.04 to 20 |  | Cc1c(OCCCN2CCC(O)(C(=O)O)CC2)cccc1-c1cccc(OCCCN2CCC(O)(C(=O)O)CC2)c1Cl [Example 1002, 1,1′-(((2-chloro-2′-methyl-[1,1′-biphenyl]-3,3′-diyl)bis(oxy))bis(propane-3,1-diyl))bis(4-hydroxypiperidine-4-carboxylic acid)] |
| > 10000 |  | Cc1c(OCCCN2C[C@H](O)C[C@H]2C(=O)O)cccc1-c1cccc(OCCCN2C[C@H](O)C[C@H]2C(=O)O)c1Cl [Example 1003, (2S,2′S,4R,4′R)-1,1′-(((2-chloro-2′-methyl-[1,1′-biphenyl]-3,3′-diyl)bis(oxy))bis(propane-3,1-diyl))bis(4-hydroxypyrrolidine-2-carboxylic acid)] |
| 1000 to 10000 |  | Cc1ccc(OCCCN2CC[C@@H](O)C2)cc1-c1cccc(OCCCN2CC[C@@H](O)C2)c1C [Example 1004, (3R,3′R)-1,1′-(((2,6′-dimethyl-[1,1′-biphenyl]-3,3′-diyl)bis(oxy))bis(propane-3,1-diyl))bis(pyrrolidin-3-ol)] |
| 20.1 to 90 |  | CC(=O)N1CCN(CCCOc2cccc(-c3cccc(OCCCN4CC[C@@H](O)C4)c3C)c2C)CC1 [Example 2001, (R)-1-(4-(3-((3′-(3-(3-hydroxypyrrolidin-1-yl)propoxy)-2,2′-dimethyl-[1,1′-biphenyl]-3-yl)oxy)propyl)piperazin-1-yl)ethan-1-one] |
|  | 99 | Cc1c(OCCCN2CC(N(C)C)C2)cccc1-c1cccc(OCCCN2CC[C@@H](O)C2)c1C [Example 2002, (R)-1-(3-((3′-(3-(3-(dimethylamino)azetidin-1-yl)propoxy)-2,2′-dimethyl-[1,1′-biphenyl]-3-yl)oxy)propyl)pyrrolidin-3-ol] |
| 20.1 to 90 |  | COc1cc2c(cc1OC)CN(CCCOc1cccc(-c3cccc(OCCCN4CC[C@@H](O)C4)c3C)c1C)CC2 [Example 2004, (R)-1-(3-((3′-(3-(6,7-dimethoxy-3,4-dihydroisoquinolin-2(1H)-yl)propoxy)-2,2′-dimethyl-[1,1′-biphenyl]-3-yl)oxy)propyl)pyrrolidin-3-ol] |
| 20.1 to 90 |  | Cc1c(OCCCNCCN2CCOCC2)cccc1-c1cccc(OCCCN2CC[C@@H](O)C2)c1C [Example 2005, (R)-1-(3-((2,2′-dimethyl-3′-(3-((2-morpholinoethyl)amino)propoxy)-[1,1′-biphenyl]-3-yl)oxy)propyl)pyrrolidin-3-ol] |
| 90.1 to 1000 |  | Cc1c(OCCCNCc2ccncc2)cccc1-c1cccc(OCCCN2CC[C@@H](O)C2)c1C [Example 2006, (R)-1-(3-((2,2′-dimethyl-3′-(3-((pyridin-4-ylmethyl)amino)propoxy)-[1,1′-biphenyl]-3-yl)oxy)propyl)pyrrolidin-3-ol] |
| 90.1 to 1000 |  | Cc1c(OCCCNCCN(C)C)cccc1-c1cccc(OCCCN2CC[C@@H](O)C2)c1C [Example 2007, (R)-1-(3-((3′-(3-((2-(dimethylamino)ethyl)amino)propoxy)-2,2′-dimethyl-[1,1′-biphenyl]-3-yl)oxy)propyl)pyrrolidin-3-ol] |
| 90.1 to 1000 |  | Cc1c(OCCCNCCn2cccn2)cccc1-c1cccc(OCCCN2CC[C@@H](O)C2)c1C [Example 2008, (R)-1-(3-((3′-(3-((2-(1H-pyrazol-1-yl)ethyl)amino)propoxy)-2,2′-dimethyl-[1,1′-biphenyl]-3-yl)oxy)propyl)pyrrolidin-3-ol] |
| 20.1 to 90 |  | Cc1ccn(CCNCCCOc2cccc(-c3cccc(OCCCN4CC[C@@H](O)C4)c3C)c2C)n1 [Example 2009, (R)-1-(3-((2,2′-dimethyl-3′-(3-((2-(3-methyl-1H-pyrazol-1-yl)ethyl)amino)propoxy)-[1,1′-biphenyl]-3-yl)oxy)propyl)pyrrolidin-3-ol] |
| 20.1 to 90 |  | Cc1c(OCCCNCCS(C)(=O)=O)cccc1-c1cccc(OCCCN2CC[C@@H](O)C2)c1C [Example 2010, (R)-1-(3-((2,2′-dimethyl-3′-(3-((2-(methylsulfonyl)ethyl)amino)propoxy)-[1,1′-biphenyl]-3-yl)oxy)propyl)pyrrolidin-3-ol] |
